Molecules are shown by their SMILES. Positions of bridges follow the written chain, without caps; N, C: chain ends. Non-standard residues stand in square brackets, D forms with d. Residues, ends and D or L forms follow the SMILES beside them. R8 = C=CCCCCCC[C@@](C)(N)C(=O)O; R5 = C=CCCC[C@@](C)(N)C(=O)O; S5 = C=CCCC[C@](C)(N)C(=O)O

The target of assay [1] is T1, FAK FAT domain (biotinylated Avitag-FAT protein) (Homo sapiens, UniProt Q05397).
T1 construct: biotinylated Avitag-FAT protein was diluted in running buffer
T1 sequence (Q05397 914-1045 limits assumed): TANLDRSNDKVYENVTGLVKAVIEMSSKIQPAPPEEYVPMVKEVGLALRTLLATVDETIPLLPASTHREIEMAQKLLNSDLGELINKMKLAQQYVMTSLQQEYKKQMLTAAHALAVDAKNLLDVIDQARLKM
Nature of the assay: Surface plasmon resonance (SPR) binding to immobilised FAT protein. Particulars: for binding and inhibitory properties (SPR/FP) in words, compared to 1907: SAR discussion of SPR and FP data; for Kd: FAT protein immobilised, peptide 200 μM-0.01 μM, 1:1 binding model, read-out: SPR KD. How it is done: SPR binding studies were performed on a ForteBio Pioneer FE SPR system. In brief, a SADH Streptavidin in Dextran Hydrogel biosensor (ForteBio) was docked onto the flow cell and preconditioned with two injections of 10 mM NaOH, 1 M NaCl for 1 min at 50 μL/min. […] Empty channel 2 served as the reference control. After achieving a stable baseline, a concentration series (200 μM-0.01 μM) of peptide was prepared in final running buffer (100 mM Tris-HCl, 200 mM NaCl, 0.05% Tween-20, 5% DMSO) and injected using the OneStep gradient injection method at a flow rate of 75 μL/min. […] Raw SPR data were appropriately processed in Qdat software (ForteBio) by normalizing the baseline prior to injection, aligning the channels, subtraction of the reference channel, and blank subtraction. Kinetic data were fitted to a pseudo-first order 1:1 interaction binding model using to calculate KD. In addition, a steady-state model and Req data points were used to validate the binding affinity. Visual inspection of the SPR sensograms was performed to verify appropriate model fitting, lack of mass transport effects, return to baseline, and lack of irregular kinetics.
(In general: In SPR one partner is held on a chip, and binding of the other changes the refractive index at the surface.)

Assay [2] has as its target T2, FAK FAT domain (paxillin-FAT binding) (Homo sapiens, UniProt Q05397).
T2 construct: FP Buffer containing 20 μM FAT and 0.1 μM TAMRA-LD2
T2 sequence (Q05397 914-1045 limits assumed): T1 sequence (Q05397 914-1045 limits assumed)
Put plainly: Competition fluorescence polarization (FP) assay, inhibition of TAMRA-LD2 binding to FAT. Particulars: read-out: FP Ki. On the procedure:
The FP assay buffer used was 20 mM Tris, 200 mM NaCl, 0.05% β-me, 0.1% Triton X-100, 5% glycerol, and 1× Halt protease inhibitor cocktail. […] Bodipy TMR FP optical module (2100-4100) was used as the mirror.
Wells with no FAT were used as a baseline value which was subtracted from the raw values to produce ΔmP values. The plate was read at every hour for four hours to test for time differences in IC50. The titration data was processed through GraphPad Prism to produce a dose response curve and a calculated IC50 with standard error (SE). A four-parameter dose-response inhibition model was utilized and the bottom fit was constrained to the lower plateau of the curve. Ki was determined from the following calculation:
P0 is the concentration of free protein and KD is calculated from the saturation curve. 150 is calculated by the following equation:
where PT is the total protein concentration, LT is the total labeled-ligand concentration, P0 is the positive root of P0^2+(KD+LT)*P0−PT, PL0=P−P0, PL50=PL0/2, L0=LT-PL0, and L50=LT-PL50.

What is called Ki is a dissociation constant, usually derived from enzyme kinetics or from competition with a known ligand. As for `CC(=O)N[C@@H](CC(N)=O)C(=O)N[C@@H](CC(C)C)C(=O)N[C@@H](CO)C(=O)N[C@@H](CCC(=O)O)C(=O)N[C@@H](CC(C)C)C(=O)N[C@@H](CC(=O)O)C(=O)N[C@@H](CCCNC(=N)N)C(=O)N[C@@H](CC(C)C)C(=O)N[C@]1(C)CCCC=CCCC[C@@](C)(C(=O)N[C@@H](CC(N)=O)C(N)=O)NC(=O)[C@H](CCC(=O)O)NC(=O)[C@H](CC(C)C)NC1=O` [Peptide 1921] (Ac-NLSELDRL[R5]LE[S5]N-NH2; staple 9-12), the “binding and inhibitory properties (SPR/FP) in words, compared to 1907” value in assay [1] was “did not show much activity compared to 1907”. The Ki in assay [2] stood at 492 µM.
One may read the Kd as the equilibrium constant for the complex coming apart. In the case of `CC(=O)N[C@@H](CC(N)=O)C(=O)N[C@@H](CC(C)C)C(=O)N[C@@H](CO)C(=O)N[C@@H](CCC(=O)O)C(=O)N[C@]1(C)CCCCCCC=CCCC[C@@](C)(C(=O)N[C@@H](CC(N)=O)C(N)=O)NC(=O)[C@H](CCC(=O)O)NC(=O)[C@H](CC(C)C)NC(=O)[C@H](C)NC(=O)[C@H](C)NC(=O)[C@H](CCCNC(=N)N)NC(=O)[C@H](CC(=O)O)NC1=O` [Peptide 1925, Ac-NLSER8DRAALES5N-NH2] (Ac-NLSE[R8]DRAALE[S5]N-NH2; staple 5-12), in assay [1], the equilibrium dissociation constant (Kd) was above 200 µM. The Ki in assay [2] came to 492 µM.
In the case of `CC(=O)N[C@@H](CC(N)=O)C(=O)N[C@]1(C)CCCC=CCCC[C@@](C)(C(=O)N[C@@H](CC(=O)O)C(=O)N[C@@H](CCCNC(=N)N)C(=O)N[C@@H](CC(C)C)C(=O)N[C@@H](CC(C)C)C(=O)N[C@@H](CC(C)C)C(=O)N[C@@H](CCC(=O)O)C(=O)N[C@@H](CC(C)C)C(=O)N[C@@H](CC(N)=O)C(N)=O)NC(=O)[C@H](CCC(=O)O)NC(=O)[C@H](CO)NC1=O` [Peptide 2024] (Ac-N[R5]SE[S5]DRLLLELN-NH2; staple 2-5), in assay [1], the dissociation constant (Kd) was above 200 µM; the “binding and inhibitory properties (SPR/FP) in words, compared to 1907” value is listed as “did not show much activity compared to 1907”. Further, the inhibition constant (Ki) in assay [2] was 412 µM.
For the compound `CC(=O)N[C@@H](CC(=O)O)C(=O)N[C@@H](CC(C)C)C(=O)N[C@]1(C)CCCCCCC=CCCC[C@@](C)(C(=O)N[C@@H](CCC(=O)O)C(=O)N[C@@H](CC(C)C)C(=O)N[C@@H](CC(=O)O)C(N)=O)NC(=O)[C@H](CC(C)C)NC(=O)[C@H](CC(C)C)NC(=O)[C@H](CCCNC(=N)N)NC(=O)[C@H](CC(=O)O)NC(=O)[C@H](CC(C)C)NC(=O)[C@H](CCC(=O)O)NC1=O` [Peptide 1913, Ac-DLR8ELDRLLS5ELD-NH2] (Ac-DL[R8]ELDRLL[S5]ELD-NH2; staple 3-10), the Kd in assay [1] is 13.7 µM. Besides, the Ki in assay [2] was found to be 21.8 µM.
For `CC(=O)N[C@@H](CC(N)=O)C(=O)N[C@@H](CC(C)C)C(=O)N[C@@H](CO)C(=O)N[C@@H](CCC(=O)O)C(=O)N[C@]1(C)CCCC=CCCC[C@@](C)(C(=O)N[C@@H](CC(C)C)C(=O)N[C@@H](CC(C)C)C(=O)N[C@@H](CCC(=O)O)C(=O)N[C@@H](CC(C)C)C(=O)N[C@@H](CC(N)=O)C(N)=O)NC(=O)[C@H](CCCNC(=N)N)NC(=O)[C@H](CC(=O)O)NC1=O` [Peptide 2022, Ac-NLSER5DRS5LLELN-NH2] (Ac-NLSE[R5]DR[S5]LLELN-NH2; staple 5-8), in assay [1], the dissociation constant Kd turned out to be 911 µM; the “binding and inhibitory properties (SPR/FP) in words, compared to 1907” value is recorded as “did not show much activity compared to 1907”. The inhibition constant (Ki) in assay [2] worked out at 341 µM.
In the case of `CC(=O)N[C@@H](CC(N)=O)C(=O)N[C@@H](CC(C)C)C(=O)N[C@]1(C)CCCCCCC=CCCC[C@@](C)(C(=O)N[C@@H](CCC(=O)O)C(=O)N[C@@H](Cc2c[nH]c3ccccc23)C(=O)N[C@@H](CC(N)=O)C(N)=O)NC(=O)[C@H](CC(C)C)NC(=O)[C@H](CC(C)C)NC(=O)[C@H](CCCNC(=N)N)NC(=O)[C@H](CC(=O)O)NC(=O)[C@H](Cc2c[nH]c3ccccc23)NC(=O)[C@H](CCC(=O)O)NC1=O` [Peptide 1933, Ac-NLR8EWDRLLS5EWN-NH2] (Ac-NL[R8]EWDRLL[S5]EWN-NH2; staple 3-10), in assay [1], the dissociation constant Kd amounted to 155 µM; the “binding and inhibitory properties (SPR/FP) in words, compared to 1907” value was “worse binding and inhibitory properties compared to 1907”. Also, the Ki in assay [2] was 281 µM.
Consider `CC(=O)N[C@@H](CC(N)=O)C(=O)N[C@@H](CC(C)C)C(=O)N[C@]1(C)CCCCCCC=CCCC[C@@](C)(C(=O)N[C@@H](CCC(=O)O)C(=O)N[C@@H](CC(C)C)C(=O)N[C@@H](CC(N)=O)C(N)=O)NC(=O)[C@H](CC(C)C)NC(=O)[C@H](CC(C)C)NC(=O)[C@H](CCCNC(=N)N)NC(=O)[C@H](CC(=O)O)NC(=O)[C@H](CC(C)C)NC(=O)[C@H](C)NC1=O` [Peptide 2009, Ac-NLR8ALDRLLS5ELN-NH2] (Ac-NL[R8]ALDRLL[S5]ELN-NH2; staple 3-10), for which the Kd in assay [1] amounted to 6.96 µM. For the same compound, the Ki in assay [2] turned out to be 26.7 µM.
As to `CC(=O)N[C@@H](CO)C(=O)N[C@@H](C)C(=O)N[C@H](C(=O)N[C@@H](CCCNC(=N)N)C(=O)N[C@@H](CCC(=O)O)C(=O)N[C@@]1(C)CCCC=CCCC[C@@](C)(C(=O)N[C@@H](C)C(=O)N[C@@H](CO)C(=O)N[C@@H](CC(C)C)C(=O)N[C@@H](CO)C(=O)N[C@@H](CC(=O)O)C(N)=O)NC(=O)[C@H](CC(C)C)NC(=O)[C@H](CCC(=O)O)NC(=O)[C@H](CC(=O)O)NC1=O)[C@@H](C)O` [Peptide 1917, Ac-SATRES5DELS5ASLSD-NH2] (Ac-SATRE[S5]DEL[S5]ASLSD-NH2; staple 6-10), in assay [1], the dissociation constant Kd stood at 4.9 µM; the “binding and inhibitory properties (SPR/FP) in words, compared to 1907” value is on record as “similar, albeit lower activity than LD2-derived 1907”. The inhibition constant Ki in assay [2] is 6.72 µM.
With `CC(=O)N[C@@H](CC(N)=O)C(=O)N[C@]1(C)CCCCCCC=CCCC[C@@](C)(C(=O)N[C@@H](CC(C)C)C(=O)N[C@@H](CCC(=O)O)C(=O)N[C@@H](CC(C)C)C(=O)N[C@@H](CC(N)=O)C(N)=O)NC(=O)[C@H](CC(C)C)NC(=O)[C@H](CCCNC(=N)N)NC(=O)[C@H](CC(=O)O)NC(=O)[C@H](CC(C)C)NC(=O)[C@H](CCC(=O)O)NC(=O)[C@H](CO)NC1=O` [Peptide 2017, Ac-NR8SELDRLS5LELN-NH2] (Ac-N[R8]SELDRL[S5]LELN-NH2; staple 2-9), in assay [1], the equilibrium dissociation constant (Kd) is 20.3 µM; the “binding and inhibitory properties (SPR/FP) in words, compared to 1907” value was “limited activity compared to 1907”. The Ki in assay [2] was 80.6 µM.
The matching figures for `CC(=O)N[C@@H](CC(N)=O)C(=O)N[C@@H](CC(C)C)C(=O)N[C@]1(C)CCCCCCC=CCCC[C@@](C)(C(=O)N[C@@H](CCC(N)=O)C(=O)N[C@@H](CC(C)C)C(=O)N[C@@H](CC(N)=O)C(N)=O)NC(=O)[C@H](CC(C)C)NC(=O)[C@H](CC(C)C)NC(=O)[C@H](CCCNC(=N)N)NC(=O)[C@H](CC(=O)O)NC(=O)[C@H](CC(C)C)NC(=O)[C@H](CCC(N)=O)NC1=O` [Peptide 1910, Ac-NLR8QLDRLLS5QLN-NH2] (Ac-NL[R8]QLDRLL[S5]QLN-NH2; staple 3-10): 24.8 µM, “not as active as 1907” and 46.8 µM.
With `CSCC[C@@H]1NC(=O)[C@H](Cc2ccccc2)NC(=O)[C@H](CCCNC(=N)N)NC(=O)[C@H](CC(C)C)NC(=O)[C@H](CCCNC(=N)N)NC(=O)[C@H](C)NC(=O)[C@](C)(NC(=O)[C@H](CCCNC(=N)N)NC(=O)[C@H](CCCNC(=N)N)NC(C)=O)CCCCCCC=CCCC[C@@](C)(C(=O)N[C@@H](CCC(N)=O)C(=O)N[C@@H](Cc2ccccc2)C(=O)N[C@@H](Cc2ccc(O)cc2)C(N)=O)NC1=O` [Peptide 1929, Ac-RRR8ARLRFMS5QFY-NH2] (Ac-RR[R8]ARLRFM[S5]QFY-NH2; staple 3-10), in assay [1], the equilibrium dissociation constant (Kd) is 77.6 µM; the “binding and inhibitory properties (SPR/FP) in words, compared to 1907” value is “did not have comparable activity to LD2-derived 1907”. The Ki in assay [2] is above 1250 µM.
Consider `CC(=O)N[C@@H](CC(N)=O)C(=O)N[C@@H](CC(C)C)C(=O)N[C@@H](CCCNC(=N)N)C(=O)N[C@@H](CCC(=O)O)C(=O)N[C@@]1(C)CCCC=CCCC[C@@](C)(C(=O)N[C@@H](CCCNC(=N)N)C(=O)N[C@@H](CCC(=O)O)C(=O)N[C@@H](CC(C)C)C(=O)N[C@@H](CC(N)=O)C(N)=O)NC(=O)[C@H](CC(C)C)NC(=O)[C@H](CCCNC(=N)N)NC(=O)[C@H](CC(=O)O)NC1=O` [Peptide 1931, Ac-NLRES5DRLS5RELN-NH2] (Ac-NLRE[S5]DRL[S5]RELN-NH2; staple 5-9), for which the dissociation constant (Kd) in assay [1] came out at 13.7 µM. In assay [2], the inhibitory constant (Ki) is 14.5 µM.

These data come from patent publication US20260265304A1, “PEPTIDE INHIBITORS OF FOCAL ADHESION KINASE ACTIVITY AND USES THEREOF” (Arizona Board of Regents on Behalf of the University of …, priority 2019, published 2026).
